Tests used:
[1] = Drug excipient compatibility study, chemical stability of binary mixtures of tesofensine and excipients; assay type: physicochemical
Excerpt: A compatibility study investigating the chemical stability of binary mixtures of tesofensine and pharmaceutically acceptable excipients has been conducted.

[2] = Dissolution tests / dissolution profile; assay type: physicochemical
Protocol: The active ingredient dissolves from the coated tablets within 30 minutes. FIGS. 1, 2 and 3 show dissolution profiles for tesofensine compositions B and C with a dose strength of 0.25 mg, 0.5 mg and 1.0 mg.

[3] = Solubility of the active ingredient in granulating liquid; assay type: physicochemical; conditions: ethanol/mixtures compared to pure water or ethanol
Excerpt: Microcrystalline cellulose also was compatible with the active ingredient. Hydroxypropylcellulose was selected as binder due to its compatibility with the active ingredient. The amount of binder was adequate to provide sufficient resistance to crushing and plasticity of the granules. Crosscarmelllose sodium was selected as disintegrant as it is an effective disintegrant and is compatible with the active ingredient. The amount of croscarmellose sodium was sufficient to provide the desired disintegration. The amount of magnesium stearate selected was sufficient to avoid sticking to tableting tooling during compression. Ethanol was selected as co-solvent in the granulating liquid as ethanol evaporates easily for improved drying properties of the granulate.

[4] = cited from earlier work

Row | Compound | Compatibility of excipient with tesofensine [1] | Decomposition of tesofensine with excipient [1] | Solubility [2] | Solubility of the active ingredient [3] | in-vivo half-life [4]
1 | magnesium stearate | Incompatibility | the extent of decomposition was low |  |  | 
2 | O.OC[C@H]1O[C@@H](O[C@H]2[C@H](O)[C@@H](O)C(O)O[C@@H]2CO)[C@H](O)[C@@H](O)[C@H]1O (stereo partly drawn) [lactose, lactose monohydrate] | compatible |  |  |  | 
3 | CCOC[C@H]1C2CCC(C[C@@H]1c1ccc(Cl)c(Cl)c1)N2C (stereo partly drawn) [tesofensine, (3S,4R)-3-(3,4-dichlorophenyl)-4-(ethoxymethyl)-8-methyl-8-azabicyclo[3.2.1]octane] |  |  | readily soluble | increased | in the range of days
